According to PubChem BioAssay (NCI):
Values joined by “and” are separate entries in the source; they are usually repeats but may differ in a detail not shown here. Equal entries are not always repeated.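 All cell lines were grown in 96-well plates and treated with compound for 48 hours. Here, GI50 denotes the concentration required for 50% inhibition of growth. TGI: total growth inhibition.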

Legend:
Experiment in all cases: NCI-60 cell line screen, 48 h
HCC-2998 colon = tested on: HCC-2998 colon
A498 renal = tested on: A498 renal
RXF 393 renal = tested on: RXF 393 renal
MALME-3M melanoma = tested on: MALME-3M melanoma
NCI/ADR-RES ovarian = tested on: NCI/ADR-RES ovarian
NCI-H23 lung = tested on: NCI-H23 lung
HT29 colon = tested on: HT29 colon
CCRF-CEM leukemia = tested on: CCRF-CEM leukemia
SF-268 CNS = tested on: SF-268 CNS
PC-3 prostate = tested on: PC-3 prostate

Structure (SMILES) | TGI (HCC-2998 colon) [µM] | TGI (A498 renal) | TGI (RXF 393 renal) | TGI (MALME-3M melanoma) | TGI (NCI/ADR-RES ovarian) | TGI (NCI-H23 lung) | TGI (HT29 colon) | TGI (CCRF-CEM leukemia) [µM] | TGI (SF-268 CNS) | TGI (PC-3 prostate) | GI50 (NCI-H23 lung) [µM] | GI50 (HCC-2998 colon) [µM] | GI50 (A498 renal) [µM] | GI50 (RXF 393 renal) [µM] | GI50 (MALME-3M melanoma) [µM] | GI50 (NCI/ADR-RES ovarian) [µM] | GI50 (HT29 colon) [µM] | GI50 (CCRF-CEM leukemia) [µM] | GI50 (SF-268 CNS) [µM] | GI50 (PC-3 prostate) [µM]
CC1=C(C)C(=O)C(C2=CC(=O)C=CC2=O)=C(C2=CC(=O)C=CC2=O)C1=O | > 100 | > 100 µM | > 100 µM | > 100 µM | > 100 µM | > 100 µM | > 100 µM | > 100 | > 100 µM | > 100 µM | – | – | – | – | – | – | – | – | – | –
Oc1cc(Br)cc2cc(Cl)cnc12 | 46.3 | 22.9 µM | 15.2 µM | 30 µM | 10 µM | 48.2 µM | > 40.9 µM | 7.23 | > 39.9 µM | > 100 µM | – | – | – | – | – | – | – | – | – | –
CCCCCCCCCCCCCC(=O)N(CCCCCCCCC)CC(O)C(O)C(OC1OC(CO)C(O)C(O)C1O)C(O)CO (stereo not drawn) | 33.7 | 35.9 µM | 54.9 µM | 35.7 µM | 37.7 µM | 41.5 µM | 33.3 µM | 45.4 | 39.4 µM | 54.6 µM | – | – | – | – | – | – | – | – | – | –
OC1C[C@H](c2ccccc2)C2(C(O)c3ccccc3C2O)[C@@H](c2ccccc2)C1 (stereo partly drawn) | > 100 | > 100 µM | > 100 µM | > 100 µM | > 100 µM | > 100 µM | > 100 µM | > 100 | > 100 µM | > 100 µM | – | – | – | – | – | – | – | – | – | –
CC(=O)OC1COC(Nc2nc(N)n(C)c(=O)c2N=O)C(OC(C)=O)C1OC(C)=O (stereo not drawn) | > 10 | > 10 µM | > 10 µM | > 10 µM | > 10 µM | > 10 µM | > 10 µM | > 10 | > 10 µM | > 10 µM | – | – | – | – | – | – | – | – | – | –
O=C(O)C(=O)/C=C(\O)c1ccc(Br)cc1 | > 100 | > 100 µM | > 100 µM | > 100 µM | > 100 µM | > 100 µM | > 100 µM | > 100 | > 100 µM | > 100 µM | – | – | – | – | – | – | – | – | – | –
Brc1ccc2c(-c3csc(-c4c[nH]c5ccccc45)n3)c[nH]c2c1 | 30.9 | 32.2 µM | 38.8 µM | 31 µM | 35.9 µM | 28.2 µM | 29 µM | 38.1 | 34.5 µM | 28.9 µM | 14.5 | – | – | – | – | – | – | – | – | –
O=[N+]([O-])C(Cl)=C/C(=C(\Cl)SCc1ccccc1)[N+](=O)[O-] | 77.6 | 81.4 µM | 26.3 µM | 57.8 µM | > 100 µM | 69.6 µM | 68.6 µM | 18 | > 100 µM | 48.1 µM | – | – | – | – | – | – | – | – | – | –
C=CCn1c(-c2ccc([N+](=O)[O-])cc2)csc1=N | > 100 | > 100 µM | 54.4 µM | > 100 µM | > 100 µM | > 100 µM | > 100 µM | 34.7 | > 100 µM | > 100 µM | – | – | – | – | – | – | – | – | – | –
COc1ccc(N2NC(c3ccccc3)(c3ccccc3)C(C)C2=O)cc1 (stereo not drawn) | > 100 | > 100 µM | > 100 µM | > 100 µM | > 100 µM | > 100 µM | > 100 µM | > 100 | > 100 µM | > 100 µM | – | – | – | – | – | – | – | – | – | –
CCOC(=O)/C=C(\C(=O)OCC)n1ccc(=O)[nH]c1=O | 38.4 | 34.8 µM | 24.6 µM | 24.2 µM | > 93 µM | 32.4 µM | 31 µM | 6.2 | 42 µM | 30.7 µM | – | – | – | – | – | – | – | – | – | –
CCOC(=O)c1c(-c2cccc3ccccc23)c(C#N)c(=S)n(C2OC(COC(C)=O)C(OC(C)=O)C(OC(C)=O)C2OC(C)=O)c1C (stereo not drawn) | > 100 | > 100 µM | > 100 µM | > 100 µM | > 100 µM | > 100 µM | > 100 µM | > 100 | > 100 µM | > 100 µM | – | – | – | – | – | – | – | – | – | –
COc1ccc(Nc2nc(N)c(C(=O)c3cccs3)s2)cc1 | 8.85 | 40.5 µM | 33.8 µM | 64.8 µM | > 100 µM | > 100 µM | > 41.4 µM | 12.8 | > 100 µM | > 60.2 µM | – | – | – | – | – | – | – | – | – | –
Cc1sc2nc3n(c(=O)c2c1C)N=CN(c1ccc(F)cc1)C3 | > 100 | > 100 µM | > 100 µM | 57.2 µM | > 100 µM | > 100 µM | > 100 µM | > 100 | > 100 µM | > 100 µM | – | – | – | – | – | – | – | – | – | –
c1ccc(CN2CCN3CCN(CC2)CCN(Cc2ccccc2)CC3)cc1 | 23.3 | 27.5 µM | 21.3 µM | 8.01 µM | > 100 µM | 21.8 µM | 17.2 µM | 26.1 | 24.7 µM | 18.5 µM | – | – | – | – | – | – | – | – | – | –
COc1ccc(-c2nn(-c3ccc(NC(=O)Nc4ccc(Cl)c(C(F)(F)F)c4)cc3)cc2-c2ccncc2)cc1Cl | 7.97 | 5.18 µM | 2.19 µM | 5.09 µM | > 100 µM | 8.17 µM | 4.57 µM | 6.65 | 19.5 µM | 5.49 µM | 1.77 | 2.19 | 1.62 | 0.74 | 1.59 | 2.4 | 1.65 | 1.4 | 2.8 | 0.793
CC1(C)CCc2c(c(N=Nc3ccc(F)cc3)c3ccccc3c2O)O1 | 42.8 | 88.8 µM | > 100 µM | 68.5 µM | > 100 µM | > 100 µM | 44.1 µM | 41 | > 100 µM | > 100 µM | – | – | – | – | – | – | – | – | – | –
O=C1C(=Cc2ccc(Cl)c(Cl)c2)C([O-])=C([P+](c2ccccc2)(c2ccccc2)c2ccccc2)C([O-])=C1[P+](c1ccccc1)(c1ccccc1)c1ccccc1 | 5.78 | 31.9 µM | 3.35 µM | 4.9 µM | 19.3 µM | 10 µM | 4.05 µM | 5.6 | 3.94 µM | 3.79 µM | – | – | – | – | – | – | – | – | – | –
CCN1CCC(O)(/C=C/c2ccc(C(C)C)cc2)C(C(=O)/C=C/c2ccc(C(C)C)cc2)C1 (stereo not drawn) | 3.64 | 19.1 µM | 6.59 µM | 10.5 µM | 8.44 µM | 5.88 µM | 6.21 µM | 4.36 | 4.31 µM | 11.4 µM | – | – | – | – | – | – | – | – | – | –
OC(CC(O)(C(F)(F)F)C(F)(F)F)c1ccc(C(O)CC(O)(C(F)(F)F)C(F)(F)F)cc1 (stereo not drawn) | 33.3 | 25.1 µM | 30.7 µM | 27.6 µM | 29.6 µM | 26.7 µM | 25.1 µM | 36.9 | 28.9 µM | 32.5 µM | – | – | – | – | – | – | – | – | – | –
CCOc1ccc2c(c1)c(=O)c1c(NCCN(CC)CC)ccc3nnn2c31 | > 50.4 | > 100 µM | 25.5 µM | 33.8 µM | > 54.2 µM | 38.6 µM | 32 µM | 25.7 | > 80.2 µM | 49.7 µM | – | – | – | – | – | – | – | – | – | –
C=C(c1ccccc1)c1ccccc1-c1cc(-c2ccccc2)cc(-c2ccccc2)n1 | > 100 | > 100 µM | > 100 µM | > 100 µM | > 100 µM | > 100 µM | > 100 µM | > 100 | > 100 µM | > 100 µM | – | – | – | – | – | – | – | – | – | –
O=c1c2ccccc2nc(N/N=C/c2ccccc2O)n1-c1ccccc1 | > 100 | > 100 µM | > 100 µM | > 100 µM | 7.71 µM | > 100 µM | > 100 µM | > 100 | > 100 µM | > 100 µM | – | – | – | – | – | – | – | – | – | –
Cn1c(O)c(C=Nc2ccccc2Cl)c(=O)n(C)c1=O | 34.2 | > 100 µM | 45.4 µM | > 100 µM | > 100 µM | > 100 µM | > 100 µM | 49 | > 100 µM | > 100 µM | – | – | – | – | – | – | – | – | – | –
Cc1ccc(NC(=O)CSC(N)=O)cc1C | > 100 | > 100 µM | > 100 µM | > 100 µM | > 100 µM | > 100 µM | > 100 µM | > 100 | > 100 µM | > 100 µM | – | – | – | – | – | – | – | – | – | –
N#CC(C#N)=C1C(=O)NC(N)=C1C#N | > 100 | > 100 µM | > 100 µM | > 100 µM | > 100 µM | > 100 µM | > 100 µM | > 100 | > 100 µM | > 100 µM | – | – | – | – | – | – | – | – | – | –
COc1ccc(C2=NN=C3C(c4ccccc4)=Nc4ccccc4N3C2)cc1 | > 100 | > 100 µM | 51.8 µM | 66.3 µM | 90.1 µM | > 100 µM | 74.3 µM | 8.24 | > 100 µM | > 100 µM | – | – | – | – | – | – | – | – | – | –
CN(Cc1cc(Cl)c(Cl)cc1NC(=O)CN)[C@H]1CCCC[C@@H]1N1CCCC1 | 31.2 | 41.5 µM | > 100 µM | 33.6 µM | > 100 µM | > 100 µM | 47.9 µM | > 100 | > 100 µM | > 100 µM | – | – | – | – | – | – | – | – | – | –
Cc1cn(S(=O)(=O)c2ccccc2)c2c(OCc3ccccc3)cc(NS(C)(=O)=O)cc12 | > 100 | 50.3 µM | > 100 µM | 43.7 µM | > 100 µM | > 100 µM | 17.2 µM | > 100 | > 77.9 µM | 29 µM | – | – | – | – | – | – | – | – | – | –
C=C(C(=O)O[C@H]1C(=O)C2=C(C)CCC3C(=C)C(=O)O[C@@H]3C2[C@]1(C)O)C1CC[C@]2(C)CCCC(=C)[C@H]2C1 (stereo partly drawn) | 9.68 | 6.88 µM and 26.1 µM | 2.52 µM and 3.65 µM | 16.3 µM and 31.1 µM | 33.6 µM and > 23.8 µM | 16.1 µM and 16.8 µM | 13.5 µM and 10.8 µM | 0.106 | 14.8 µM and 11 µM | 10.4 µM and 16.8 µM | – | – | 0.0282 | 1.79 | 15.5 | 8.52 | 1.59 | – | 7.47 | 4.08
